Source: BindingDB's records for doi:10.1016/j.bmc.2008.01.035 (Anhui University of Technology, 2008)

biological target: DNA gyrase subunit A/B (Staphylococcus aureus, UniProt P0A0K8+P20831); experiment: Inhibition of Staphylococcus aureus DNA gyrase supercoiling activity

Structure (SMILES)	IC50 [nM]
CCC(=O)O/N=C(/C)N1N=C(C)CC1c1ccccc1OCc1ccc(F)cc1 (stereo not drawn)	> 314000
CC1=NN(/C(C)=N\OC(=O)c2cccnc2)C(c2ccc(OCc3ccc(F)cc3)cc2)C1 (stereo not drawn)	7830
COC1CC(c2ccccc2)=NN1/C(C)=N\OC(=O)c1ccc(C(F)(F)F)cc1 (stereo not drawn)	308
CC1=NN2C(C1)c1ccccc1CC2(C)C (stereo not drawn)	1160

More lines, now with the values ahead:

IC50 [nM]	Structure (SMILES)
12200	COC1CC(c2ccccc2)=NN1/C(C)=N\OC(=O)c1ccco1 (stereo not drawn)
271	C/C(=N/OC(=O)c1ccco1)N1N=C(c2ccc(Cl)cc2Cl)CC1c1ccccc1F (stereo not drawn)
1180	C=CC(=O)O/N=C(/C)N1N=C(c2ccc(Cl)cc2Cl)CC1c1ccccc1F (stereo not drawn)
979	C/C(=N/OC(=O)c1ccco1)N1N=C(c2ccc(Cl)cc2Cl)CC1c1ccc(C(F)(F)F)cc1 (stereo not drawn)
